Experiments:
PHD-2/Egln1 = PHD-2/Egln1 (Homo sapiens, UniProt Q9GZT9); assay: DARTS with Western blot, HeLa lysate; type: binding; conditions: TNC buffer pH 8.0, 10 mM CaCl2; room temperature
[1] = target: ATP5B (ATP synthase subunit beta) (Homo sapiens, UniProt P06576); assay: DARTS with LC-MS/MS; type: binding; conditions: TNC buffer pH 8.0, 10 mM CaCl2; room temperature
ATP5B (ATP synthase subunit beta), sequence (P06576 48-529): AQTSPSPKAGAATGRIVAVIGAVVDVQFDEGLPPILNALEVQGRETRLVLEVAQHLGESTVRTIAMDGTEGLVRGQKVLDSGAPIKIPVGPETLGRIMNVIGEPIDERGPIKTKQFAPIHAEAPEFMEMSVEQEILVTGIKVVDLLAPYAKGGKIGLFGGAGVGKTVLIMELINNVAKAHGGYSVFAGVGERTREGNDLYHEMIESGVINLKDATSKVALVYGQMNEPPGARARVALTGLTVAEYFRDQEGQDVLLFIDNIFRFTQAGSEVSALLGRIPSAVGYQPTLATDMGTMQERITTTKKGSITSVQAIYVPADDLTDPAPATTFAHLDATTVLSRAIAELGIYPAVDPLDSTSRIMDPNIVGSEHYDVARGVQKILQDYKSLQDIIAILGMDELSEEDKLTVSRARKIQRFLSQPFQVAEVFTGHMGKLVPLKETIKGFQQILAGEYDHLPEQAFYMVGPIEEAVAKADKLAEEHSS

PHD-2/Egln1, sequence (Q9GZT9 2-426): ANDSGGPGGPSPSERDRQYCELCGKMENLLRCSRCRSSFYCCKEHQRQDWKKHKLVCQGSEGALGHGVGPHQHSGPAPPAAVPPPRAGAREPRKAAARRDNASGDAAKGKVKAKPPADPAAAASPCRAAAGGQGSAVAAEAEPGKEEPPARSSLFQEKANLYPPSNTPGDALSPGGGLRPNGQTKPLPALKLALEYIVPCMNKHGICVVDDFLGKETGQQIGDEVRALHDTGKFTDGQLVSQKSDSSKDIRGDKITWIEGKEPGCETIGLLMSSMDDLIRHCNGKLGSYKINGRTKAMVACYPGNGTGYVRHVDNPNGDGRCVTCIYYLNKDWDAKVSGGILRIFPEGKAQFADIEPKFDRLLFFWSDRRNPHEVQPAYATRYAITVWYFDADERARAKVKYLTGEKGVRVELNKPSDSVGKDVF

- DARTS with Western blot, HeLa lysate (PHD-2/Egln1): Binding between α-KG and PHD-2/Egln1
Compound: O=C(O)CCC(=O)C(=O)O [α-KG]
- DARTS with LC-MS/MS (Jurkat) and Western blot (HeLa) [1]: DARTS confirms α-KG binding specifically to ATP5B

Reference: article PMC4263271 (Nature, 2014)
